Measurements: US20060270019A1, “Method for producing lactic acid bacterium culture containing bacteriocin and a method for preserving food products for by using it” (Ajinomoto Co., Inc., priority 2003, published 2006)
Positions of bridges follow the written chain, without caps; N, C: chain ends. Non-standard residues stand in square brackets, D forms with d. No end group written: not given here.

Key:
Format in all cases: cell-based
[1] = tested on: Bacillus subtilis IAM1381; test: Bacteriocin as substitute for salt in soy sauce manufacturing process: viable cell count of contaminating bacterium; conditions: soy sauce koji test, first day of fermentation up to day 7
Method: Soybean (10 g) and pure water (10 ml) were individually added into six Erlenmeyer flasks (200-ml volume) and sterilized in an autoclave at 120° C. for 30 minutes. After cooling, 0.04 g of koji mold(Purple 1, NO.1 bacterium for soy sauce) was added, and cultivated statically at 30° C. for 2 days. 40 ml of sterile pure water were added to cultivated sample (Sample No.1), 40 ml of salt solution which adjusted the salt content of the sample to 18% to Sample No.2, 40 ml of a culture supernatant of Lactococcus lactis NCIMB702054 (the bacterium producing nisin Z) to Sample No.3 and 40 ml of a culture supernatant of Weissella sp. AJ110263 (FERM BP-10474) to Sample No.4, 40 ml of a culture supernatant of Pediococcus pentosaseceus JCM5885 to Sample 5 and 40 ml of a culture supernatant of Lactobacillus salivarius JCM1231 to Sample 6. The resulting mixtures were then adjusted to pH 6.5 to 7.0, using 6N hydrochloric acid and 6N NaOH passed through a filter.
200 μl of Bacillus subtilis IAM1381 cultivated in the TSBYE medium by a shaker at 30° C. for 20 hours was additionally inoculated, mixed thoroughly and cultivated at 30° C. On days 1, 2 and 7 of the cultivation, the broth was collected to count the viable cells of Bacillus subtilis IAM1381 on the GAM agar medium (GAM bouillon “NISSUI”, Nissui Pharmaceutical Co., Ltd.). […]

[2] = tested on: Listeria innocua ATCC33090; test: Aging of ground beef inoculated with Listeria: viable cell count; conditions: first day of aging up to day 7
Excerpt: The broths obtained by cultivating Lactococcus lactis NCIMB702054 (a strain producing NisinZ) and Weissella sp.AJ110263 (FERM BP-10474) in MRS culture media were adjusted to pH 5.5 with sodium hydroxide. Subsequently, the bacteria were removed from the pH adjusted culture liquid by centrifucation to obtain a supernatant. The broths containing lactic acid bacteria and the supernatants were used in the experiment described below.
5 g of ground meat of Black hair Japanese beef were individually put into six aseptic Falcon tubes (Becton Dickinson Co.50-ml volume) and 5 ml of saline were added to the meat(Sample No.1), 5 ml of 18% salt solution to Sample No.2, 5 ml of the supernatant of Lactococcus lactis NCIMB702054 to Sample No.3, 5 ml of the broth of Lactococcus lactis NCIMB702054 to Sample No.4, 5 ml of the supernatant of Weissella sp. AJ110263 to Sample No.5, 5 ml of the broth of Weissella sp. AJ110263 to Sample No.6. Further, Listeria innocua ATCC33090, statically cultivated in TSBYE medium at 37° C. for 24 hours, was added to the samples in the amount of 10^8 cfu/ml and the samples were aged at ambient temperature. The samples aged for one day and seven days were collected to count the viable cells of Listeria innocua ATCC33090 in the Listeria selection medium (Oxoid Inc.).

[3] = tested on: Lactobacillus sakei strain JCM1157; test: Inhibitory zone of lactic acid bacteria on MRS agar plate containing protease (Umamizyme G), overlaid with indicator strain; conditions: Protease 0 U/ml, Nisin A spotted as 10 μl of 1000 IU/ml
Method: The collected lactic acid bacteria are cultivated in the heretofore described manner. Then, the lactic acid bacteria are inoculated and cultivated for 24 hours on a plate of MRS agar medium to which filtrated Umamizyme G (a protease derived from Aspergillus oryzaeproteases; Amano Enzyme Co) is added. Subsequently, the Lactobacilli AOAC medium (Table 3) into which an indicator strain is initially mixed is overlaid on the plate and cultivated for 24 hours, to form an inhibitory zone of the indicator strain.
Weissella sp. AJ110263 (FERM BP-10474) separated from fermented milk Matsoon and Pediococcus pentosaceus JCM5885, Pediococcus pentosaceus JCM5890, Lactobacillus plantarum JCM1149 and Lactobacillus salivarius obtained from the type cultures were initially cultivated followed by cultivation in the MRS medium (Table 1). […]
Lactococcus lactis NCDO497 (a nisinA producer) and Lactococcus lactis NCIMB702054 (a nisin Z producer) were cultivated in the MRS medium at 30° C. In the same manner as in Example 1, the antimicrobial activity was evaluated, using Lactobacillus sakei strain JCM1157 as an indicator strain.
Additionally, the antimicrobial activity was evaluated, by spotting 10 μl of a 1000 IU/ml solution of Nisin A, ICN Biomedical Inc. instead of using the nisin producer, on the plate of the MRS agar medium.

## [Cl-].[Na+] [salt, sodium chloride]
[1]
  contamination by Bacillus subtilis IAM1381 (in words): no contamination occurred
[2]
  contaminating Listeria innocua ATCC33090 count: ≥ 10^5 cfu/ml

## Nisin A (I[dehydrobutyrine]SI[dehydroalanine]LCTPGCKTGALMGCNMKTATCHCSIHV[dehydroalanine]K; bridge 23-26, 13-19, 8-11, 25-28, 3-7; not fully specified (residues 3, 8, 13, 23, 25, bridges); UniProt P13068 24-57, looked up) [Nisin A, ICN Biomedical Inc., bacteriocin spotted instead of a nisin producer]
[3]
  Diameter(mm) of Inhibitory Zone of Strain not producing PRB: 30 mm
